Reference: patent US7071162B1, “Combined use of cementum attachment protein and cyclosporin a for improved attachment of dental and orthopedic implants” (priority 1997, dated 2006)

Key:
[1] = tested on: periodontal ligament cells; assay: Attachment and spread of periodontal ligament cells; type: cell-based; details: for attachment and spread of cells from the periodontal ligament: compared with gingival fibroblasts
Description: Cementum attachment protein (CAP) is a protein of molecular mass approximately 56 kDa present in cementum and specifically expressed by mineralized tissue-forming cells of the periodontium. […] The protein has sequences containing Gly-X-Y repeats typical of a collagen helix. SEQ ID NOS 1-5 are fragments of CAP. One 17-amino-acid peptide, SEQ ID NO 2, has 82% homology with a type XII collagen domain. […] Although another 19-amino-acid-long peptide (SEQ ID NO 3) has 95% homology to bovine al (I) collagen, two other peptides, SEQ ID NOS 4 and 5, are only 79% and 68% homologous.

periodontal cells = details: CAP-coated surfaces; Pitaru et al. 1995; cited from earlier work

Substance | capacity to promote attachment of periodontal cells after bacterial collagenase ([1]; bacterial collagenase digestion) | capacity to promote attachment of periodontal cells after chondroitinase ABC digestion ([1]; chondroitinase ABC digestion) | attachment and spread of cells from the periodontal ligament [1] | migration and attachment of periodontal cells versus gingival fibroblasts (periodontal cells)
Cementum attachment protein [CAP] | eliminate the capacity of CAP to promote attachment of periodontal cells | had no effect | more efficiently than that of gingival fibroblasts | migrate in response to and attach better to CAP-coated surfaces than do gingival fibroblasts
type XIl collagen: collagen type with a domain 82% homologous to SEQ ID NO 2 of CAP [reference compound] |  |  | does not promote the attachment of periodontal ligament cells | 
